The results in this text go back to the NIST ThermoML archive (doi:10.1016/j.tca.2009.09.001).

Numbers after ± are expanded uncertainties.

Data set [1] is described as follows: Molar enthalpy of transition or fusion. The conditions noted are these: Crystal; DSC.
For data set [2] the following is noted: Crystal; DTA.

In the case of `O[C@@H]1CCCC[C@H]1O` (relative stereo) [trans-1,2-cyclohexanediol], the “Molar enthalpy of transition or fusion” value in data set [1] stood at 8.22 ± 0.239 kcal/mol. In data set [2], the Normal melting temperature is 99 ± 1 °C.

For `O[C@H]1CCCC[C@@H]1O` [1,2-cyclohexanediol, (1S,2S)-], in data set [1], the “Molar enthalpy of transition or fusion” value was 3.59 ± 0.12 kcal/mol. Further, the Normal melting temperature in data set [2] amounted to 104 ± 1 °C.

Take `O[C@@H]1CCCC[C@H]1O` [(1R,2R)-1,2-cyclohexanediol]: the “Molar enthalpy of transition or fusion” value in data set [1] came to 4.3 ± 0.143 kcal/mol. In data set [2], the Normal melting temperature came to 108 ± 1 °C.

`O=C(O)[C@H](O)[C@@H](O)C(=O)O` [(2R,3R)-2,3-dihydroxybutanedioic acid]: the “Molar enthalpy of transition or fusion” value in data set [1] was 5.35 ± 0.167 kcal/mol. Moreover, the Normal melting temperature in data set [2] is 171 ± 1 °C.
